Measurements: patent US6706740B2, “Fungicidal heterocyclic aromatic amides and their compositions, methods of use and preparation” (Dow AgroSciences LLC, priority 1999, dated 2004)
Read-outs that look alike come from different tables or passages of the source.

Legend:
[1] = system: Magnaporthe grisea (Pyricularia oryzae—PYRIOR); assay: microbe, parasite or virus in culture; assay type: cell-based; details: Pyricularia oryzae, read-out: PYRIOR in vitro Growth Inhibition
[2] = system: Rhizoctonia solani (RHIZSO); assay: microbe, parasite or virus in culture; assay type: cell-based; details: Rhizoctonia solani, read-out: RHIZSO in vitro Growth Inhibition
[3] = system: Mycosphaerella graminicola (Septoria tritici—SEPTTR); assay: In vitro fungal growth inhibition, Mycosphaerella graminicola (SEPTTR); assay type: cell-based; details: Zymoseptoria tritici, read-out: SEPTTR in vitro Growth Inhibition
[4] = system: Stagonospora nodorum (Leptosphaeria nodorum—LEPTNO); assay: In vitro fungal growth inhibition, Stagonospora nodorum (LEPTNO); assay type: cell-based; details: Leptosphaeria, read-out: LEPTNO in vitro Growth Inhibition
Ustilago maydis (USTIMA) = assay: microbe, parasite or virus in culture; assay type: cell-based; details: Mycosarcoma maydis, read-out: USTIMA in vitro Growth Inhibition
[5] = system: Phytophthora infestans (PHYTIN); assay: microbe, parasite or virus in culture; assay type: cell-based; details: Phytophthora infestans, read-out: PHYTIN in vitro Growth Inhibition
[6] = system: Phytophthora infestans—PHYTIN; assay: whole plant or invertebrate; assay type: in vivo; details: Phytophthora, in Solanum lycopersicum, 24 h, read-out: PHYTIN in vivo 1 Day Protectant
[7] = system: Puccinia recondita—PUCCRT; assay: Brown Rust of Wheat, in vivo whole plant, 24 Hour Protectant; details: for pest or weed control at 100 ppm: Puccinia, read-out: PUCCRT in vivo 1 Day Protectant
Erysiphe graminis—ERYSGT = assay: Powdery Mildew of Wheat, in vivo whole plant, 24 Hour Protectant; details: Erysiphe, read-out: ERYSGT in vivo 1 Day Protectant
Septoria tritici—SEPTTR = assay: Leaf Blotch of Wheat, in vivo whole plant, 24 Hour Protectant; details: for pest or weed control at 100 ppm: Zymoseptoria tritici, 24 h, read-out: SEPTTR in vivo 1 Day Protectant
[8] = system: Leptosphaeria nodorum—LEPTNO; assay: Glume Blotch of Wheat, in vivo whole plant, 24 Hour Protectant; details: for pest or weed control at 100 ppm: Leptosphaeria, read-out: LEPTNO in vivo 1 Day Protectant
[9] = 100 ppm spray, 24 hour protectant, wheat, control of fungal infection vs untreated plants
[10] = 100 ppm spray, wheat, 24 hour protectant, % control of fungal infection vs untreated plants
[11] = 100 ppm spray, wheat, 24 hour protectant, control of fungal infection vs untreated plants
[12] = wheat plants sprayed at 100 ppm, inoculated after 24 hours, control of fungal infection vs untreated plants

Row | SMILES | inhibition at 25 ppm [1] | inhibition at 25 ppm [2] | inhibition at 25 ppm ([3]; 25 ppm in growth medium) | inhibition at 25 ppm ([4]; 25 ppm in growth medium) | inhibition at 25 ppm (Ustilago maydis (USTIMA)) | inhibition at 25 ppm [5] | pest or weed control at 100 ppm [6] | pest or weed control at 100 ppm (Erysiphe graminis—ERYSGT; [9]) | pest or weed control at 100 ppm [7, 11] | pest or weed control at 100 ppm (Erysiphe graminis—ERYSGT; [11]) | pest or weed control at 100 ppm (Septoria tritici—SEPTTR; [11]) | pest or weed control at 100 ppm [8, 11] | further results
1 | COc1ccnc(C(=O)NC2CCCC(Sc3ccc(C(F)(F)F)cn3)C2)c1O (stereo not drawn) [Compound 274] | > 80% | > 80% | > 80% | > 80% | < 80% | > 80% | < 25% | < 25% |  |  |  |  | PUCCRT in vivo 1 Day Protectant [7, 9]: + +; pest or weed control at 100 ppm (Septoria tritici—SEPTTR; [9]): 25 to 74%; LEPTNO in vivo 1 Day Protectant [8, 9]: + +
2 | CCC1(C)CC(NC(=O)c2nccc(OC)c2O)CC(C)(C)C1 (stereo not drawn) [Compound 251] | < 80% | < 80% | > 80% | > 80% | < 80% | > 80% | 25 to 74% | < 25% |  |  |  |  | PUCCRT in vivo 1 Day Protectant [7, 9]: + +; SEPTTR in vivo 1 Day Protectant (Septoria tritici—SEPTTR; [9]): + +; LEPTNO in vivo 1 Day Protectant [8, 9]: + +
3 | COc1ccnc(C(=O)N[C@H]2COC(=O)[C@H](Cc3ccccc3)[C@@H](OC(=O)C(C)C)[C@H](C)OC2=O)c1OC(=O)C(C)(C)C [Compound 605] | < 80% | < 80% | < 80% | < 80% | < 80% | < 80% | < 25% |  |  |  |  |  | PUCCRT in vivo 1 Day Protectant [7, 10]: + +; pest or weed control at 100 ppm (Erysiphe graminis—ERYSGT; [10]): < 25%; SEPTTR in vivo 1 Day Protectant (Septoria tritici—SEPTTR; [10]): + +; LEPTNO in vivo 1 Day Protectant [8, 10]: + +
4 | COc1ccnc(C(=O)N[C@@H]2C[C@@H](O[Si](C)(C)C(C)(C)C)O[C@@H](C)[C@@H]2OC)c1O [Compound 326] | < 80% | < 80% |  |  | < 80% | < 80% | < 25% | < 25% |  |  |  |  | inhibition at 25 ppm [3]: < 80%; inhibition at 25 ppm [4]: < 80%; pest or weed control at 100 ppm [7, 9]: < 25%; SEPTTR in vivo 1 Day Protectant (Septoria tritici—SEPTTR; [9]): + +; pest or weed control at 100 ppm [8, 9]: 25 to 74%
5 | COc1ccnc(C(=O)Nc2cccc(Oc3ccccc3C)c2)c1O [Compound 412] | > 80% | < 80% | > 80% | > 80% | < 80% | < 80% | < 25% |  | 25 to 74% | < 25% | < 25% | < 25% | 
6 | COC(=O)C(CO)NC(=O)c1nccc(OC)c1O (stereo not drawn) [Compound 340] | < 80% | < 80% | < 80% | < 80% | < 80% | < 80% | < 25% |  | < 25% | 25 to 74% | < 25% | 25 to 74% | 
7 | COc1ccnc(C(=O)Nc2ccc(OCc3cccc(C(F)(F)F)c3)cc2)c1O [Compound 447] | < 80% | < 80% | < 80% | < 80% | < 80% | < 80% | < 25% |  | < 25% | < 25% | < 25% | 25 to 74% | 
8 | CCCCCCCCCCCCC(=O)O[C@H]1[C@H](C)OC(=O)[C@@H](NC(=O)c2nccc(OC)c2O)COC(=O)[C@@H]1Cc1ccccc1 [Compound 397] | < 80% | < 80% | < 80% | < 80% | < 80% | < 80% | < 25% |  | 25 to 74% | < 25% | 25 to 74% | 25 to 74% | 
9 | COc1ccnc(C(=O)N[C@H]2COC(=O)[C@H](Cc3ccccc3)[C@@H](OC(=O)/C=C(\C)CCC=C(C)C)[C@H](C)OC2=O)c1O [Compound 396] | > 80% | < 80% | > 80% | > 80% | < 80% | < 80% | < 25% |  | 25 to 74% | < 25% | 25 to 74% | 25 to 74% | 
10 | COCCCc1ccc2c(c1)OC(C)C(NC(=O)c1nccc(OC)c1O)C2=O (stereo not drawn) [Compound 322] | < 80% | > 80% | < 80% | > 80% | < 80% | < 80% | < 25% | 25 to 74% |  |  |  |  | pest or weed control at 100 ppm [7, 9]: 25 to 74%; pest or weed control at 100 ppm (Septoria tritici—SEPTTR; [9]): 25 to 74%; pest or weed control at 100 ppm [8, 9]: 25 to 74%
11 | COc1ccnc(C(=O)NC2C3CC4C(C3Cl)C42)c1O (stereo not drawn) [Compound 304] | < 80% | > 80% | < 80% | < 80% | < 80% | < 80% | < 25% | < 25% |  |  |  |  | pest or weed control at 100 ppm [7, 9]: < 25%; SEPTTR in vivo 1 Day Protectant (Septoria tritici—SEPTTR; [9]): + +; pest or weed control at 100 ppm [8, 9]: 25 to 74%
12 | CCCCCCCCCCCCCCCCCC(=O)O[C@H]1[C@H](C)OC(=O)[C@@H](NC(=O)c2nccc(OC)c2O)COC(=O)[C@@H]1Cc1ccccc1 [Compound 398] | > 80% | < 80% | > 80% | > 80% | < 80% | < 80% | < 25% |  | 25 to 74% | < 25% | < 25% | < 25% | 
13 | COc1ccnc(C(=O)NC2CC(C)(C)CC(C)(C(=O)CCCc3ccccc3)C2)c1O (stereo not drawn) [Compound 276] | < 80% | < 80% | < 80% | > 80% | < 80% | < 80% | < 25% | < 25% |  |  |  |  | pest or weed control at 100 ppm [7, 9]: 25 to 74%; pest or weed control at 100 ppm (Septoria tritici—SEPTTR; [9]): 25 to 74%; LEPTNO in vivo 1 Day Protectant [8, 9]: + +
14 | COC(=O)C(COC(=O)COCc1ccccc1)NC(=O)c1nccc(OC)c1OC(C)=O (stereo not drawn) [Compound 585] | < 80% | < 80% |  |  | < 80% | < 80% | < 25% |  |  |  |  |  | inhibition at 25 ppm ([3]; 25 ppm in the growth medium): < 80%; inhibition at 25 ppm ([4]; 25 ppm in the growth medium): < 80%; pest or weed control at 100 ppm [7, 12]: 25 to 74%; pest or weed control at 100 ppm (Erysiphe graminis—ERYSGT; [12]): < 25%; pest or weed control at 100 ppm (Septoria tritici—SEPTTR; [12]): 25 to 74%; pest or weed control at 100 ppm [8, 12]: 25 to 74%
15 | COc1ccnc(C(=O)N[C@H]2COC(=O)[C@H](Cc3ccccc3)[C@@H](OC(=O)C3CCCC3)[C@H](C)OC2=O)c1O [Compound 391] | > 80% | < 80% | > 80% | > 80% | > 80% | < 80% | < 25% |  | 25 to 74% | < 25% | 25 to 74% |  | LEPTNO in vivo 1 Day Protectant [8, 11]: + +
